Source: patent US20240075064A1, “COMPOSITIONS AND METHODS FOR EXPANSION OF T CELLS AND TUMOR INFILTRATING LYMPHOCYTES” (OBSIDIAN THERAPEUTICS, INC., priority 2021, published 2024)

System: IL15 signaling pathway
Assay: Phospho-flow cytometry assay of IL15 expression and signaling (pSTAT5, pS6)
Type: cell-based, human
Settings: regulated mbIL15 TILs, ACZ 0.1-100, 18 hours
Procedure: Pre-REP TILs were prepared similarly to the methods of Example 1-3 and 9, and unengineered and mbIL15 TIL generated accordingly as described in Examples 1-3 and 9. Engagement of the IL15 signaling pathway results in phosphorylation of signal transducers downstream, including the transcription factor protein STATS and ribosomal protein S6. […] Next, the regulated mbIL15 TILs were regulated for 18 hours in the presence of a range of concentrations of ACZ including 0.1, 1, 2.5, 5, 10, 25, 100 as well as vehicle control. The regulated mbIL15 TILs were then collected for staining and FACS analysis.
Briefly, cells were stained using antibodies for CD3, CD4, CD8, IL15 and a Live/Dead marker. Then cells were fixed in 2% formaldehyde (BD Cytofix) and permeabilized using a methanol-based buffer (BD Phospho Perm III Buffer) before staining with antibodies specific for phosphorylated STATS (Biolegend) and S6 (Cell Signaling Technology). Cells were acquired on the BD Symphony and analyzed using FlowJo software.
In order to compare different strategies for IL15 expression, TILs were utilized that constitutively express mbIL15 and regulated mbIL15 TILs. Cryopreserved unengineered TILs, constitutive mbIL15 TILs, and regulated mbIL15 TILs, from three human donors were thawed and then rested in ACZ-free media for 24 hours. […] Cells were acquired on the BD Fortessa and analyzed using FlowJo software.

CC(=O)Nc1nnc(S(N)(=O)=O)s1 [ACZ, acetazolamide]
staining intensity of pSTAT5 and pS6: increased with higher concentrations of ACZ
